Results as given in ChEMBL document CHEMBL1201862, “PubChem BioAssay data set” (2004).
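Five compound concentrations were applied to cells in 96-well plates for 48 hours; endpoints were derived by simple linear interpolation of the resulting dose-response curve. GI50: concentration for 50% inhibition of growth.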 Calls of active or inactive are those of the source. Rule as the data show it: active = GI50 up to about 1.1 µM and inactive = higher.

How the values were obtained:
Assay in all cases: growth of human tumour cells (NCI), 48 h
UACC-62 = tested on: UACC-62
SF-295 = tested on: SF-295
SK-OV-3 = tested on: SK-OV-3
SNB-78 = tested on: SNB-78
TK-10 = tested on: TK-10
MOLT-4 = tested on: MOLT-4
K562 = tested on: K562
786-0 = tested on: 786-0
M14 = tested on: M14
LXFL 529 = tested on: LXFL 529
SR = tested on: SR
UACC-257 = tested on: UACC-257
Malme-3M = tested on: Malme-3M
M19-MEL = tested on: M19-MEL
U-251 = tested on: U-251
A549 = tested on: A549
KM-20L2 = tested on: KM-20L2
RXF 393 = tested on: RXF 393
XF498 = tested on: XF498
HT-29 = tested on: HT-29
SF-268 = tested on: SF-268
NCI-H226 = tested on: NCI-H226
HCC 2998 = tested on: HCC 2998
SNB-75 = tested on: SNB-75
SW-620 = tested on: SW-620
HCT-116 = tested on: HCT-116
SNB-19 = tested on: SNB-19
OVCAR-3 = tested on: OVCAR-3
CAKI-1 = tested on: CAKI-1
SK-MEL-28 = tested on: SK-MEL-28
DMS-273 = tested on: DMS-273
KM12 = tested on: KM12
HOP-18 = tested on: HOP-18
DLD-1 = tested on: DLD-1
OVCAR-5 = tested on: OVCAR-5
A498 = tested on: A498
HL-60 = tested on: HL-60
SN12C = tested on: SN12C
UO-31 = tested on: UO-31
NCI-H460 = tested on: NCI-H460
ACHN = tested on: ACHN
IGROV-1 = tested on: IGROV-1
HOP-92 = tested on: HOP-92
EKVX = tested on: EKVX
HOP-62 = tested on: HOP-62
SF-539 = tested on: SF-539
DMS-114 = tested on: DMS-114
SK-MEL-2 = tested on: SK-MEL-2
HCT-15 = tested on: HCT-15
OVCAR-8 = tested on: OVCAR-8
NCI-H522 = tested on: NCI-H522
RPMI-8226 = tested on: RPMI-8226
CCRF-CEM = tested on: CCRF-CEM
OVCAR-4 = tested on: OVCAR-4
LOX IMVI = tested on: LOX IMVI
COLO 205 = tested on: COLO 205
NCI-H23 = tested on: NCI-H23
SK-MEL-5 = tested on: SK-MEL-5

**Q.** What does the source list for O=C1C(Cl)=C(Cl)C(=O)N1c1ccccc1Cl?
**A.** GI50 (UACC-62): > 100 µM (inactive); GI50 (SF-295): > 100 µM (inactive); GI50 (SK-OV-3): > 100 µM (inactive); GI50 (SNB-78): > 100 µM (inactive); GI50 (TK-10): > 100 µM (inactive); GI50 (MOLT-4): 30.9 µM (inactive); GI50 (K562): 28.9 µM (inactive); GI50 (786-0): > 79.3 µM (inactive); GI50 (M14): > 75.9 µM (inactive); GI50 (LXFL 529): > 53 µM (inactive); GI50 (SR): 14.7 µM (inactive); GI50 (UACC-257): > 100 µM (inactive); GI50 (Malme-3M): > 52.5 µM (inactive); GI50 (M19-MEL): > 100 µM (inactive); GI50 (U-251): > 100 µM (inactive); GI50 (A549): > 100 µM (inactive); GI50 (KM-20L2): > 100 µM (inactive); GI50 (RXF 393): 50.2 µM (inactive); GI50 (XF498): > 100 µM (inactive); GI50 (HT-29): > 71 µM (inactive); GI50 (SF-268): > 100 µM (inactive); GI50 (NCI-H226): > 100 µM (inactive); GI50 (HCC 2998): > 100 µM (inactive); GI50 (SNB-75): > 100 µM (inactive); GI50 (SW-620): > 52.6 µM (inactive); GI50 (HCT-116): > 100 µM (inactive); GI50 (SNB-19): > 100 µM (inactive); GI50 (OVCAR-3): 99.3 µM (inactive); GI50 (CAKI-1): > 44.2 µM (inactive); GI50 (SK-MEL-28): > 100 µM (inactive); GI50 (DMS-273): > 100 µM (inactive); GI50 (KM12): > 100 µM (inactive); GI50 (HOP-18): > 100 µM (inactive); GI50 (DLD-1): > 52.2 µM (inactive); GI50 (OVCAR-5): > 100 µM (inactive); GI50 (A498): > 100 µM (inactive); GI50 (HL-60): 15.3 µM (inactive); GI50 (SN12C): > 100 µM (inactive); GI50 (UO-31): > 100 µM (inactive); GI50 (NCI-H460): > 100 µM (inactive); GI50 (ACHN): > 100 µM (inactive); GI50 (IGROV-1): > 100 µM (inactive); GI50 (HOP-92): > 36.7 µM (inactive); GI50 (EKVX): > 100 µM (inactive); GI50 (HOP-62): > 100 µM (inactive); GI50 (SF-539): > 100 µM (inactive); GI50 (DMS-114): > 95.1 µM (inactive); GI50 (SK-MEL-2): > 100 µM (inactive); GI50 (HCT-15): > 53.6 µM; GI50 (OVCAR-8): > 100 µM (inactive); GI50 (NCI-H522): 8.24 µM (inactive); GI50 (RPMI-8226): > 54.1 µM (inactive); GI50 (CCRF-CEM): 11.9 µM (inactive); GI50 (OVCAR-4): > 100 µM (inactive); GI50 (LOX IMVI): > 100 µM (inactive); GI50 (COLO 205): > 63.7 µM (inactive); GI50 (NCI-H23): > 85.9 µM (inactive); GI50 (SK-MEL-5): > 100 µM (inactive)

**Q.** COc1ccc(-c2c(C3=NCCCN3)nnn2-c2ccccc2)cc1 was tested. Which GI50 (UACC-62) did it give?
**A.** > 100 µM (inactive)

**Q.** And the GI50 (SF-295)?
**A.** > 100 µM (inactive)

**Q.** And the GI50 (SK-OV-3)?
**A.** > 100 µM (inactive)

**Q.** And the GI50 (SNB-78)?
**A.** > 100 µM (inactive)

**Q.** And the GI50 (TK-10)?
**A.** > 100 µM (inactive)

**Q.** What about the GI50 (MOLT-4) of the same compound?
**A.** > 100 µM (inactive)

**Q.** What about the GI50 (K562) of the same compound?
**A.** > 100 µM (inactive)

**Q.** What about the GI50 (786-0) of the same compound?
**A.** > 100 µM (inactive)

**Q.** And the GI50 (M14)?
**A.** > 100 µM (inactive)

**Q.** What about the GI50 (LXFL 529) of the same compound?
**A.** > 100 µM (inactive)

**Q.** And the GI50 (SR)?
**A.** > 100 µM (inactive)

**Q.** And the GI50 (UACC-257)?
**A.** > 100 µM (inactive)

**Q.** And the GI50 (Malme-3M)?
**A.** > 100 µM (inactive)

**Q.** What about the GI50 (M19-MEL) of the same compound?
**A.** > 100 µM (inactive)

**Q.** And the GI50 (U-251)?
**A.** > 100 µM (inactive)

**Q.** What about the GI50 (A549) of the same compound?
**A.** > 100 µM (inactive)

**Q.** What about the GI50 (KM-20L2) of the same compound?
**A.** > 100 µM (inactive)

**Q.** What about the GI50 (RXF 393) of the same compound?
**A.** > 100 µM (inactive)

**Q.** What about the GI50 (XF498) of the same compound?
**A.** > 100 µM (inactive)

**Q.** What about the GI50 (HT-29) of the same compound?
**A.** > 100 µM (inactive)

**Q.** And the GI50 (SF-268)?
**A.** > 100 µM (inactive)

**Q.** What about the GI50 (NCI-H226) of the same compound?
**A.** > 100 µM (inactive)

**Q.** And the GI50 (HCC 2998)?
**A.** > 100 µM (inactive)

**Q.** And the GI50 (SNB-75)?
**A.** 47.4 µM (inactive)

**Q.** And the GI50 (SW-620)?
**A.** > 100 µM (inactive)

**Q.** And the GI50 (HCT-116)?
**A.** > 100 µM (inactive)

**Q.** And the GI50 (SNB-19)?
**A.** > 100 µM (inactive)

**Q.** And the GI50 (OVCAR-3)?
**A.** > 100 µM (inactive)

**Q.** What about the GI50 (CAKI-1) of the same compound?
**A.** > 100 µM (inactive)

**Q.** What about the GI50 (SK-MEL-28) of the same compound?
**A.** > 100 µM (inactive)

**Q.** What about the GI50 (DMS-273) of the same compound?
**A.** > 100 µM (inactive)

**Q.** And the GI50 (KM12)?
**A.** > 100 µM (inactive)

**Q.** What about the GI50 (HOP-18) of the same compound?
**A.** > 100 µM (inactive)

**Q.** And the GI50 (DLD-1)?
**A.** > 100 µM (inactive)

**Q.** And the GI50 (OVCAR-5)?
**A.** > 100 µM (inactive)

**Q.** What about the GI50 (A498) of the same compound?
**A.** > 100 µM (inactive)

**Q.** What about the GI50 (HL-60) of the same compound?
**A.** > 100 µM (inactive)

**Q.** And the GI50 (SN12C)?
**A.** > 100 µM (inactive)

**Q.** And the GI50 (UO-31)?
**A.** > 100 µM (inactive)

**Q.** And the GI50 (NCI-H460)?
**A.** > 100 µM (inactive)

**Q.** And the GI50 (ACHN)?
**A.** > 100 µM (inactive)

**Q.** What about the GI50 (IGROV-1) of the same compound?
**A.** > 100 µM (inactive)

**Q.** What about the GI50 (HOP-92) of the same compound?
**A.** 86.5 µM (inactive)

**Q.** What about the GI50 (EKVX) of the same compound?
**A.** > 100 µM (inactive)

**Q.** What about the GI50 (HOP-62) of the same compound?
**A.** > 100 µM (inactive)

**Q.** What about the GI50 (SF-539) of the same compound?
**A.** > 100 µM (inactive)

**Q.** What about the GI50 (DMS-114) of the same compound?
**A.** > 100 µM (inactive)

**Q.** What about the GI50 (SK-MEL-2) of the same compound?
**A.** > 100 µM (inactive)

**Q.** And the GI50 (HCT-15)?
**A.** > 100 µM

**Q.** And the GI50 (OVCAR-8)?
**A.** > 100 µM (inactive)

**Q.** What about the GI50 (NCI-H522) of the same compound?
**A.** > 100 µM (inactive)

**Q.** What about the GI50 (RPMI-8226) of the same compound?
**A.** > 100 µM (inactive)

**Q.** And the GI50 (CCRF-CEM)?
**A.** > 100 µM (inactive)

**Q.** And the GI50 (OVCAR-4)?
**A.** > 100 µM (inactive)

**Q.** What about the GI50 (LOX IMVI) of the same compound?
**A.** > 100 µM (inactive)

**Q.** And the GI50 (COLO 205)?
**A.** > 100 µM (inactive)

**Q.** What about the GI50 (NCI-H23) of the same compound?
**A.** > 100 µM (inactive)

**Q.** And the GI50 (SK-MEL-5)?
**A.** > 100 µM (inactive)
